One block for each molecule: values may come before it.
Tests used:
[1] = system: folylpolyglutamate synthase (FPGS); assay: Km of Hog folyl-poly-glutamate synthase (FPGS) relative to aminopterin; design: species or system Sus scrofa; details: pig, hog folylpolyglutamate synthase (FPGS) enzyme
Sus scrofa = species: Sus scrofa; assay: Vmax of Hog folyl-poly-glutamate synthase (FPGS) relative to aminopterin; details: pig, in vitro
MCF7 = assay: Ability to inhibit growth of MCF-7 human breast adenocarcinoma in vitro; format: functional, cell-based
MOLT-4 = assay: Ability to inhibit [3H]methotrexate transport into MOLT-4 cells in vitro; format: functional, cell-based; details: Homo sapiens
CCRF-CEM = assay: In vitro antitumor activity was assessed from rate of cell growth of CCRF/CEM cell line; format: functional, cell-based; details: Homo sapiens
[2] = substrate: Nc1nc(N)c(CCCNc2ccc(C(=O)N[C@@H](CCC(=O)O)C(=O)O)s2)c(O)n1; assay: (§1) Vmax of Hog Folyl-polyglutamate synthase relative to aminopterin; details: Sus scrofa
[3] = substrate: Nc1nc(N)c(CCCNc2cnc(C(=O)N[C@@H](CCC(=O)O)C(=O)O)s2)c(O)n1; assay: as §1; details: Sus scrofa
[4] = substrate: Nc1nc(N)c(CCCNc2ccc(C(=O)N[C@@H](CCC(=O)O)C(=O)O)s2)c(O)n1; assay: (§2) Km of Hog Folyl-polyglutamate synthase relative to aminopterin; details: Sus scrofa
[5] = substrate: Nc1nc(N)c(CCCNc2cnc(C(=O)N[C@@H](CCC(=O)O)C(=O)O)s2)c(O)n1; assay: as §2; details: Sus scrofa

IC50 (MCF7): 37 nM
Molecule: Nc1nc(N)c(CCCNc2ccc(C(=O)N[C@@H](CCC(=O)O)C(=O)O)cc2)c(O)n1

IC50 (MCF7): 38 nM
IC50 (MOLT-4): 1600 nM
Molecule: Nc1nc(N)c(CCCNc2ccc(C(=O)N[C@@H](CCC(=O)O)C(=O)O)s2)c(O)n1

IC50 (MCF7): 4 nM
IC50 (MOLT-4): 800 nM
Molecule: Nc1nc(N)c(CCCNc2cnc(C(=O)N[C@@H](CCC(=O)O)C(=O)O)s2)c(O)n1

IC50 (CCRF-CEM): 2.3 nM
Molecule: Nc1nc(O)c2c(n1)NCC(CCc1ccc(C(=O)N[C@@H](CCC(=O)O)C(=O)O)s1)C2 (stereo partly specified)

Further lines, the molecule ahead of its results:

Molecule: Nc1nc2c(c(=O)[nH]1)C[C@@H](CCc1ccc(C(=O)N[C@@H](CCC(=O)O)C(=O)O)cc1)CN2 [LOMETREXOL]
Km [1]: 17.5 µM
Vmax (Sus scrofa): 97%
IC50 (MCF7): 18 nM
IC50 (MOLT-4): 1500 nM
IC50 (CCRF-CEM): 15 nM

Molecule: Nc1nc(O)c2c(n1)NCC(CCc1ccc(C(=O)N[C@@H](CCC(=O)O)C(=O)O)o1)C2 (stereo partly specified)
IC50 (CCRF-CEM): 27 nM

B1: Folylpolyglutamate synthase, mitochondrial (Homo sapiens), Q05932 (protein)
chain: MSRARSHLRAALFLAAASARGITTQVAARRGLSAWPVPQEPSMEYQDAVRMLNTLQTNAGYLEQVKRQRGDPQTQLEAMELYLARSGLQVEDLDRLNIIHVTGTKGKGSTCAFTECILRSYGLKTGFFSSPHLVQVRERIRINGQPISPELFTKYFWRLYHRLEETKDGSCVSMPPYFRFLTLMAFHVFLQEKVDLAVVEVGIGGAYDCTNIIRKPVVCGVSSLGIDHTSLLGDTVEKIAWQKGGIFKQGVPAFTVLQPEGPLAVLRDRAQQISCPLYLCPMLEALEEGGPPLTLGLEGEHQRSNAALALQLAHCWLQRQDRHGAGEPKASRPGLLWQLPLAPVFQPTSHMRLGLRNTEWPGRTQVLRRGPLTWYLDGAHTASSAQACVRWFRQALQGRERPSGGPEVRVLLFNATGDRDPAALLKLLQPCQFDYAVFCPNLTEVSSTGNADQQNFTVTLDQVLLRCLEHQQHWNHLDEEQASPDLWSAPSPEPGGSASLLLAPHPPHTCSASSLVFSCISHALQWISQGRDPIFQPPSPPKGLLTHPVAHSGASILREAAAIHVLVTGSLHLVGGVLKLLEPALSQ
Vmax [2]: 118%
Vmax [3]: 99.3%
Km [4]: 9.3 µM
Km [5]: 8.6 µM

Reference: ChEMBL document CHEMBL1127566, “Thienyl and thiazolyl acyclic analogues of 5-deazatetrahydrofolic acid” (J Med Chem, 1994)
